Measurements reported in patent publication US20240287005A1, “ISOXAZOLINE PESTICIDES” (Elanco Tiergesundheit AG, priority 2021, published 2024).

Tested on: Ctenocephalides felis
Experiment: In vitro evaluation of contact activity against adult cat fleas
Conditions: adult fleas in coated glass vial, after 48 h
Procedure: In vitro contact tests with […] are conducted with adult males and females of Ctenocephalides felis. For the coating of the test vials, the test substance is dissolved and diluted in acetone p.a. to the desired concentration. The solution is then homogeneously applied to the inner walls and base of a glass vial by turning and rocking on an orbital shaker until complete evaporation of the solvent. For example, with 900 ppm solution of test substance an area-based dose of 5 μg/cm^2 is achieved.
After the solvent is completely evaporated, approximately 10 adult fleas are applied to each coated test vial, which is then sealed with a perforated plastic lid and incubated in a horizontal position in the dark at room temperature and ambient humidity. Insecticidal activity is determined after 48 h. Fleas which remain motionless on the base of the test vial or move uncoordinated without occasionally jumping or walking straight are considered dead or moribund, respectively. An insecticidal activity of 100% means all fleas were dead or moribund. An insecticidal activity of 0% means none of the fleas was affected. From a dose response curve the respective EC50 was calculated (4-parameter logistic curve fitting).

Cc1cc(C2=NOC(c3cc(C(F)(F)F)cc(C(F)(F)F)c3F)(C(F)(F)F)C2)ccc1C(=O)NCC(=O)NCC(F)(F)F (single isomer, unassigned) [Example 3.1]
EC50 insecticidal activity (fleas dead or moribund): < 0.05 μg/cm^2
